Assay results from PMC2362650, “Phase I and pharmacokinetic study of the topoisomerase II catalytic inhibitor fostriecin” (British Journal of Cancer, 1999).
Where two headings read alike, the source gives them in different places.

Legend:
murine leukaemia P388 = tested on: murine leukaemia P388; design: method as in Leopold et al, 1984; details: ref Leopold et al, 1984; cited from earlier work
[1] = Plasma and urine pharmacokinetics (HPLC-UV) in patients after 60-min IV infusion; assay type: in vivo, human; details: human; for Cmax / AUC / MRT / half-life: plasma, intravenous, day 1 course 1; for Cmax: observed value; for MRT: read-out: MRT
Source text: Fostriecin (CI-920) is a topoisomerase (topo) II catalytic activity inhibitor (Boritzki et al, 1988) (Figure 1). This novel class of topo II-targeting drugs is considered of potential value for treatment of patients with tumours resistant to classic topo II poisons, including anthracyclines and podophyllotoxins (Cummings and Smyth, 1993). The nuclear enzyme topo II is essential for the regulation of DNA conformation (reviewed in Osheroff et al, 1991). Central in its action is the formation of a complex with DNA. Stabilization of this complex by topo II poisons induces DNA damage and cell death (Froelich-Ammon and Osheroff, 1995). Decreased complex formation due to decreased topo II levels is considered to be an important mechanism of tumour-resistance to topo II poisons (Beck and Danks, 1991). The topo II catalytic inhibitor fostriecin is expected to have increased activity against tumour cells with low topo II levels and this was confirmed in in vitro studies (De Jong et al, 1991). […] Because of increased toxi- city of fostriecin in dogs compared to mice, a dose below one-third of the one-tenth mouse equivalent LD10, 2 mg m-2 day-1, was chosen as starting dose in humans (Clinical Brochure Fostriecin, 1991). […] We also performed an analysis of the human pharmacokinetics of fostriecin and ex vivo experiments to investigate if the plasma drug concentrations achieved were sufficient to inhibit a tenipo- side-resistant tumour cell line. The maximum tolerated dose (MTD) of fostriecin could not be established because drug supply was stopped prematurely. However, results of this study may provide a basis for continued clinical development of this agent. PATIENTS AND METHODS Patient selection, drug administration and evaluation Patient eligibility criteria were: histologically confirmed diagnosis of a solid tumour, no longer amenable to established forms of treatment; age 18-75 years; Eastern Cooperative Oncology Group (ECOG) performance status 2; life expectancy 12 weeks; no Phase I and pharmacokinetic study of the topoisomerase II catalytic inhibitor fostriecin RS de Jong1, NH Mulder1, DRA Uges2, DTh Sleijfer1, FJP Hoppener4, HJM Groen3, PHB Willemse1, WTA van der Graaf1 and EGE de Vries1 Departments of 1Medical Oncology, 2Pharmacy and Toxicology, and 3Pulmonary Diseases, University Hospital Groningen, The Netherlands; 4EORTC New Drug Development Office, Amsterdam, The Netherlands Summary We conducted a phase I and pharmacokinetic study of the topoisomerase II catalytic inhibitor fostriecin. Fostriecin was administered intravenously over 60 min on days 1-5 at 4-week intervals. Dose was escalated from 2 mg m-2 day-1 to 20 mg m-2 day-1 in 20 patients. Drug pharmacokinetics was analysed with high performance liquid chromatography with UV-detection. Plasma collected during drug administration was tested in vitro for growth inhibition of a teniposide-resistant small-cell lung cancer (SCLC) cell line. The predominant toxicities were elevated liver transaminases (maximum common toxicity criteria (CTC) grade 4) and serum creatinine (maximum CTC grade 2). […] Duration of elevated alanine-amino transferase (ALT) was dose-limiting in one patient at 20 mg m-2. Other frequent toxicities were grade 1-2 nausea/vomiting, fever and mild fatigue. […] A metabolite, most probably dephosphorylated fostriecin, was detected in plasma and urine. […] However, further escalation seems possible and is warranted to achieve potentially effective drug levels. Fostriecin has a short plasma half-life and longer duration of infusion should be considered. […]

[2] = 2 mg, patient no. 1, 2 mg m-2, one-compartment model
[3] = 2 mg, patient no. 3, 2 mg m-2, one-compartment model
[4] = 2 mg, patient no. 4, 2 mg m-2, one-compartment model
[5] = 4 mg, patient no. 5, 4 mg m-2, one-compartment model
[6] = 4 mg, patient no. 6, 4 mg m-2, one-compartment model
[7] = 4 mg, patient no. 7, 4 mg m-2, two-compartment model
[8] = 6.6 mg, patient no. 11, 6.6 mg m-2, two-compartment model
[9] = 6.6 mg, patient no. 12, 6.6 mg m-2, two-compartment model
[10] = 10 mg, patient no. 13, 10 mg m-2, two-compartment model
[11] = 10 mg, patient no. 15, 10 mg m-2, two-compartment model
[12] = 12.2 mg, patient no. 16, 12.2 mg m-2, two-compartment model

What does the source list for `C[C@@](O)(/C=C/[C@H]1CC=CC(=O)O1)[C@@H](C[C@@H](O)\C=C/C=C\C=C\CO)OP(=O)(O)O` [fostriecin]?
activity against P388 (murine leukaemia P388): active; number of patients with fostriecin detectable in plasma more than 7 h after infusion ([1]; in vivo): one; Cmax ([1]; 2 mg, patient no. 1, 2 mg m-2): 495 ng/mL; AUC [1, 2]: 739 ng·h/mL; MRT [1, 2]: 51.6 min; half-life ([1]; 2 mg, patient no. 1, 2 mg m-2, one-compartment model, read-out: t1/2 (converted)): 36 min; Cmax ([1]; 2 mg, patient no. 3, 2 mg m-2): 597 ng/mL; AUC [1, 3]: 810 ng·h/mL; MRT [1, 3]: 46.2 min; half-life ([1]; 2 mg, patient no. 3, 2 mg m-2, one-compartment model, read-out: t1/2 (converted)): 32.4 min; Cmax ([1]; 2 mg, patient no. 4, 2 mg m-2): 371 ng/mL; AUC [1, 4]: 468 ng·h/mL; MRT [1, 4]: 30.6 min; half-life ([1]; 2 mg, patient no. 4, 2 mg m-2, one-compartment model, read-out: t1/2 (converted)): 21 min; Cmax ([1]; 4 mg, patient no. 5, 4 mg m-2): 1160 ng/mL; AUC [1, 5]: 1360 ng·h/mL; MRT [1, 5]: 43.2 min; half-life ([1]; 4 mg, patient no. 5, 4 mg m-2, one-compartment model, read-out: t1/2 (converted)): 30 min; Cmax ([1]; 4 mg, patient no. 6, 4 mg m-2): 956 ng/mL; AUC [1, 6]: 1170 ng·h/mL; MRT [1, 6]: 40.2 min; half-life ([1]; 4 mg, patient no. 6, 4 mg m-2, one-compartment model, read-out: t1/2 (converted)): 27.6 min; Cmax ([1]; 4 mg, patient no. 7, 4 mg m-2): 940 ng/mL; AUC [1, 7]: 1490 ng·h/mL; MRT [1, 7]: 116 min; half-life ([1]; 4 mg, patient no. 7, 4 mg m-2, two-compartment model, read-out: t1/2 (initial) (converted)): 15.6 min; half-life ([1]; 4 mg, patient no. 7, 4 mg m-2, two-compartment model, read-out: t1/2 (terminal) (converted)): 122 min; Cmax ([1]; 6.6 mg, patient no. 11, 6.6 mg m-2): 1400 ng/mL; AUC [1, 8]: 1650 ng·h/mL; MRT [1, 8]: 26.4 min; half-life ([1]; 6.6 mg, patient no. 11, 6.6 mg m-2, two-compartment model, read-out: t1/2 (initial) (converted)): 5.4 min; half-life ([1]; 6.6 mg, patient no. 11, 6.6 mg m-2, two-compartment model, read-out: t1/2 (terminal) (converted)): 28.2 min; Cmax ([1]; 6.6 mg, patient no. 12, 6.6 mg m-2): 1860 ng/mL; AUC [1, 9]: 2450 ng·h/mL; MRT [1, 9]: 37.8 min; half-life ([1]; 6.6 mg, patient no. 12, 6.6 mg m-2, two-compartment model, read-out: t1/2 (initial) (converted)): 15 min; half-life ([1]; 6.6 mg, patient no. 12, 6.6 mg m-2, two-compartment model, read-out: t1/2 (terminal) (converted)): 73.2 min; Cmax ([1]; 10 mg, patient no. 13, 10 mg m-2): 2240 ng/mL; AUC [1, 10]: 3350 ng·h/mL; MRT [1, 10]: 55.2 min; half-life ([1]; 10 mg, patient no. 13, 10 mg m-2, two-compartment model, read-out: t1/2 (initial) (converted)): 100 min; half-life ([1]; 10 mg, patient no. 13, 10 mg m-2, two-compartment model, read-out: t1/2 (terminal) (converted)): 55.8 min; Cmax ([1]; 10 mg, patient no. 15, 10 mg m-2): 2450 ng/mL; AUC [1, 11]: 3770 ng·h/mL; MRT [1, 11]: 60.6 min; half-life ([1]; 10 mg, patient no. 15, 10 mg m-2, two-compartment model, read-out: t1/2 (initial) (converted)): 18 min; half-life ([1]; 10 mg, patient no. 15, 10 mg m-2, two-compartment model, read-out: t1/2 (terminal) (converted)): 83.4 min; Cmax ([1]; 12.2 mg, patient no. 16, 12.2 mg m-2): 3200 ng/mL; AUC [1, 12]: 4230 ng·h/mL; MRT [1, 12]: 56.4 min; half-life ([1]; 12.2 mg, patient no. 16, 12.2 mg m-2, two-compartment model, read-out: t1/2 (initial) (converted)): 13.2 min
